Reference: PubChem BioAssay (NCI)
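Protocol summary: plate cells (96-well), add compound at 5 concentrations, incubate 48 h, interpolate endpoints linearly. GI50 is the concentration that inhibits growth by half. At the TGI there is no net growth.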

How the values were obtained:
Assay in all cases: NCI tumour cell line growth inhibition, 48 h
[1] = system: HOP-92 NSCLC
[2] = system: UACC-257 melanoma
[3] = system: SW-620 colon
[4] = system: UACC-62 melanoma
[5] = system: MOLT-4 leukemia
[6] = system: RPMI-8226 leukemia
[7] = system: EKVX NSCLC
[8] = system: NCI-H460 lung
[9] = system: SK-MEL-28 melanoma
[10] = system: SF-539 CNS

| SMILES | TGI [1] [µM] | GI50 [2] [µM] | TGI [2] [µM] | GI50 [3] [µM] | TGI [3] [µM] | GI50 [4] [µM] | TGI [4] [µM] | TGI [5] [µM] | TGI [6] [µM] | GI50 [7] [µM] | TGI [7] [µM] | GI50 [8] [µM] | TGI [8] [µM] | GI50 [9] [µM] | TGI [9] [µM] | GI50 [1] [µM] | GI50 [10] [µM] | TGI [10] [µM] | GI50 [5] [µM] | GI50 [6] [µM] |
| --- | --- | --- | --- | --- | --- | --- | --- | --- | --- | --- | --- | --- | --- | --- | --- | --- | --- | --- | --- | --- |
| O=[N+]([O-])c1ccc(Sc2c3ccccc3nc3cc(Cl)ccc23)cc1 | > 100 | > 100 | > 100 | > 100 | > 100 | > 100 | > 100 | > 100 | > 100 | > 100 | > 100 | > 100 | > 100 | > 100 | > 100 | – | – | – | – | – |
| COc1ccc(C(=O)c2ccc([As]=O)cc2)cc1 (stereo not given) | 0.262 | – | – | 0.0313 | 0.111 | – | – | 0.265 | 0.0643 | 0.132 | 0.293 | 0.172 | 0.416 | – | – | 0.13 | 0.0432 | 0.163 | 0.0389 | 0.0224 |
| NC(=S)NN/C=C(\C=Nc1ccccc1)[N+](=O)[O-] | > 100 | – | > 100 | – | > 100 | – | > 100 | – | > 100 | – | > 100 | – | – | – | > 100 | – | – | > 100 | – | – |
| CCOC(=O)C1SC(=Nc2ccc(Cl)cc2)N=C1C (stereo not given) | 29.6 | – | – | – | 35.2 | – | – | 48.8 | 82.3 | – | 45.2 | – | 45.1 | – | 40.9 | – | – | 33 | – | – |
| Oc1ccccc1-c1nn(CNc2ccccc2Cl)c(=S)o1 | 66.2 | > 100 | > 100 | 41.9 | > 100 | 71.7 | > 100 | – | 59.6 | > 100 | > 100 | 37.4 | > 100 | – | – | 16.4 | 37.7 | 97.7 | – | 20.2 |
| Cc1c2ccccc2cc2ccc3oc([N+](=O)[O-])cc3c12 | > 100 | – | > 100 | – | > 100 | – | > 100 | > 100 | > 100 | – | > 100 | – | > 100 | – | – | – | – | > 100 | – | – |
| O=C(Nc1ccc(Cl)c(Cl)c1)NS(=O)(=O)c1cnccc1Oc1ccc(F)cc1 | 8.47 | 4.72 | 24.4 | 3.01 | > 100 | 4.16 | > 100 | 8.58 | 5.36 | 2.68 | 44.4 | 3.09 | 20.1 | – | – | 2.77 | 3.64 | 24.6 | 2.68 | 2.01 |
| O=S(=O)(CCCl)c1ccc(Cl)cc1 | 6.57 | 2.98 | 11.6 | 2.43 | 11.6 | 5.63 | 19.4 | > 100 | 12 | – | – | 6.4 | 24 | 2.38 | 10.8 | 2.2 | 2.46 | 7.08 | 3 | 2.8 |
| CCOC(=O)NC(=O)c1cn(CCN2CCN(C(=O)CCCCCCCCCCC(=O)N3CCN(CCn4cc(C(=O)NC(=O)OCC)c(=O)[nH]c4=O)CC3)CC2)c(=O)[nH]c1=O | > 100 | – | > 100 | – | > 100 | – | – | > 100 | > 100 | – | – | – | – | – | > 100 | – | – | > 100 | – | – |
| CSC(=NCCc1c[nH]c2ccccc12)NC#N | – | – | > 100 | – | > 100 | – | > 100 | > 100 | > 100 | – | > 100 | – | > 100 | – | > 100 | – | – | > 100 | – | – |
| CC(C)(C)OC(=O)NCCCCCCCn1c2c(c3ccccc3c1=O)C(=O)c1ccccc1-2 | 37.1 | 41.4 | > 100 | 44 | > 100 | 20 | 72.8 | > 100 | – | > 100 | > 100 | 28.6 | > 100 | 50.4 | > 100 | 15 | 20.7 | 38.8 | 25.6 | – |
| c1ccc(N2N=C(c3ccco3)CC2c2ccco2)cc1 (stereo not given) | – | – | – | – | > 100 | – | > 100 | 52.4 | > 100 | – | > 100 | – | > 100 | – | > 100 | – | – | > 100 | – | – |
| O=C(/C=C/c1ccccc1)c1ccc(NCc2nc3ccccc3[nH]2)cc1 | 22.5 | – | 13.2 | – | 8.43 | – | 21.4 | 32.3 | – | – | 22.5 | – | 12 | – | 32.6 | – | – | 5.02 | – | – |
| N/N=C1\C(=O)N(CCc2ccccc2)C(=O)C1C(=O)NCCc1ccccc1 (stereo not given) | > 100 | – | > 100 | – | > 100 | – | > 100 | > 100 | > 100 | – | > 100 | – | – | – | > 100 | – | – | > 100 | – | – |
| CN(C)C(=S)/N=c1\ssc(=S)n1Cc1ccncc1 | – | – | 83.5 | – | 48.8 | – | 25.5 | 49.3 | – | – | > 100 | – | 31.5 | – | > 100 | – | – | 48.4 | – | – |
| CCN(C(=O)/C=C/c1ccco1)c1ccccc1 | > 100 | – | > 100 | – | > 100 | – | > 100 | > 100 | > 100 | – | > 100 | – | > 100 | – | > 100 | – | – | – | – | – |
| C[C@H]1CCCC(O)C(O)[C@@H]2C[C@H](O[Si](C)(C)C(C)(C)C)C[C@H]2[C@H](O[Si](C)(C)C(C)(C)C)C(O)C(O)C(=O)O1 (stereo not given in full) | – | 35.2 | > 100 | 94.7 | > 100 | 18.5 | 48.8 | > 100 | > 100 | 26.1 | 72.3 | 11 | 23.9 | 47.9 | > 100 | – | 14.4 | 30.7 | 66 | > 100 |
| COc1cnc2c(c1)C(=O)c1c-2n(CCCN2CCN(C)CC2)c(=O)c2cc([N+](=O)[O-])ccc12 | 4.37 | 2.46 | 5.87 | 0.0227 | 1.38 | – | – | – | 0.917 | 0.514 | 2.05 | 0.135 | 0.365 | – | – | 1.82 | 0.191 | 0.386 | – | 0.226 |
